According to patent US20080293691A1, “Treatment Method” (SMITHKLINE BEECHAM CORPORATION, priority 2005, published 2008):

What was measured:
[1] = test system: choroidal neovascularization (CNV); assay: Prevention model for CNV (treatment begun before laser-induced retinal injury in mice); type: in vivo; settings: oral twice daily from one day before retinal burning, 100 mg/kg Example 1, 45 mg/kg Example 3, or both, read fourteen days after burning, FIG. 2
Protocol: See the Examples section for additional information.
(§1) Mice were anesthetized and the pupils were dilated. Burns of krypton laser photocoagulation were delivered to the retina. Administration of the compound described in Example 1 was initiated seven days after the laser-induced injury. Oral doses of either the vehicle alone or vehicle containing the compound of formula (I) (designated as VEGF R in FIG. 1) at a dose or 4 mg/kg, 20 mg/kg, or 100 mg/kg were administered twice daily for seven days. After seven day of treatment, the mice were perfused with fluorescein-labeled dextran, and the area of choroidal neovascularization was quantitated.
In this experiment, the compound described in Example 1 (Designated as VEGF R in FIG. 2), Example 3 (designated as vitronectin in FIG. 2), or a combination of the compounds described in Example 1 and Example 3 (designated as “both” in FIG. 2) were administered to each mouse beginning one day before retinal burning was performed according to the methods described in Example 4. The compounds were administered orally twice daily at a dosage of 100 mg/kg for the compound of Example 1 or 45 mg/kg for the compound of Example 3. Fourteen days after the retinal burning, the CNV area was quantitated as described above.

[2] = test system: choroidal neovascularization (CNV); assay: Regression model for CNV (laser-induced choroidal neovascularization in mice); type: in vivo; settings: oral 4, 20 or 100 mg/kg twice daily for seven days, started seven days after laser-induced injury, compared with vehicle/untreated
From the text: In this regression model, CNV was induced in mice by laser burns on the posterior pole of the retina. Seven days after the laser-induced injury, the mice began a regime in which they were given either vehicle alone or 5-[[4-[(2,3-Dimethyl-2H-indazol-6-yl)methylamino]-2-pyrimidinyl]amino]-2-methylbenzenesulfonamide at the indicated doses. Seven days after this regime was initiated, the size of the CNV lesions was quantitated. See the Examples section for additional information.
as §1

| SMILES | CNV area (size of choroidal neovascular lesions) [1] | area of choroidal neovascularization (size of CNV lesions) ([2]; FIG. 1) | area of choroidal neovascularization (size of CNV lesions) ([2]; FIG. 1, listed as Pazopanib) |
| --- | --- | --- | --- |
| O=C(O)C[C@@H]1Cc2ccc(OCCCNc3ccccn3)cc2CN(CC(F)(F)F)C1=O [Example 3, (S)-3-oxo-8-[3-(pyridin-2-ylamino)-1-propyloxy]-2-(2,2,2-trifluoroethyl)-2,3,4,5-tetrahydro-1H-2-benzazepine-4-acetic acid] | a decrease in size of the resulting choroidal neovascular lesions | – | – |
| Cc1ccc(Nc2nccc(N(C)c3ccc4c(C)n(C)nc4c3)n2)cc1S(N)(=O)=O [pazopanib, 5-({4-[(2,3-dimethyl-2H-indazol-6-yl)(methyl)amino]pyrimidin-2-yl}amino)-2-methylbenzenesulfonamide] | a decrease in size of the resulting choroidal neovascular lesions | a decrease in the size of the resulting choroidal neovascular lesions | decreased the CNV area in a dose-specific manner |
